From US12631620B2, “Methods of generating organoids for high throughput screening of drugs” (Yissum Research Development Company of the Hebrew …, priority 2019, dated 2026)
Where “and” joins values, the source holds several entries; their conditions need not be identical. Equal entries are not always repeated.

System: HepG2/C3A organoids
Assay: Real-time oxygen uptake toxicity (TC50, time to onset, lowest exposure level) in differentiated HepG2/C3A organoids
Type: cell-based, human
Conditions: for TC50: oxygen uptake
Protocol: A suspension of HepG2/C3A cells and CPOx-50-RuP beads (Colibri Photonics, Germany) were suspended in 2.5 mg/ml rat tail collagen type I (Corning, USA) at a cell density of 7×10^5 cells/μl. A volume of 1.1 μl of the gel-imbedded mixture was injected into each microwell and left to form spontaneously until their metabolic activity stabilized around day 4.
Fifty-micrometer-diameter polystyrene microbeads were loaded with ruthenium-phenanthroline-based phosphorescence dye (CPOx-50-RuP). […] Oxygen acts as a quencher, leading to a decrease in decay time and signal intensity with increasing concentration. The present inventors chose to measure decay time, rather than signal intensity, as it is not sensitive to changes in probe concentration or excitation intensity over the course of the experiment. The signal was measured using the OPAL system (Colibri Photonics, Germany) that comprises of a control module, 532 nm LED excitation source, and a photomultiplier (PMT) detector mounted on the ocular of an IX81 Olympus microscope (Olympus, Japan). A filter cube with 531/40 (Ex), 555, 607/70 (Em) was inserted in the optical light path during measurements. To accurately measure decay time, the present inventors chose phase modulation in which sinusoidal amplitude-modulated light is shifted in phase due to oxygen quenching. To overcome the superposition of in-phase background fluorescence that alters the phase of the detected signal, the present inventors used a novel 53.5 and 31.3 kHz two-frequency phase modulation that allowed to screen out the interference [Schmalzlin E., et al., 2005. Biophysical journal, 89: 1339-1345; Papkovsky, D. B. et al., 2004. Methods in enzymology, 381, 715-735; Ast, C., et al., 2012. Sensors (Basel), 12: 7015-7032; Engelhard, S., et al., 2006. Analytical and bioanalytical chemistry, 384: 1107-1112; Prill, D. et al., 2016, Archives of toxicology, 90: 1181-1191]. Measurements were carried out by averaging five consecutive 4-s exposures. Measurements were taken every 15 minutes. Under similar conditions, 28 days of measurement of organoids was done with no apparent phototoxicity, signal drift, or relevant loss of signal intensity (Schmalzlin E., et al., 2005. Biophysical journal, 89: 1339-1345). Assessment of Cellular Toxicity and Time to Onset
Organoids were exposed to different concentrations of compounds dissolved in culture medium. Cell viability was determined by oxygen uptake following 24 hours of exposure unless otherwise noted. TC50 concentrations were determined using MATLAB by sigmoidal curve fitting (Wenner, M. M. et al., 2011, J Appl Physiol (1985), 111: 1703-1709; Prentice, R. L. et al., 1976, Biometrics, 32: 761-768). Time to onset was analyzed by MATLAB based on LPF and trend assessment.
To find the asymptotic concentration for which damage occurs only at infinite exposure time, the present inventors used a previously developed model for accumulative drug exposure (El-Kareh et al., 2000. Neoplasia, 2: 325-338; Currie, G. M. 2018. J Nucl Med Technol, DOI: 10.2967/jnmt.117.199588). The model is based on the steady-state dynamics of flux accumulation, using a linear first-order approximation of the cell membrane. The flux behavior is described by
where J(C) is the concentration dependent flux, Jmin is the minimal flux that will cause an effect, t is time of exposure and |τ is a drug-cell specific constant accounting reaction dynamics (Gowrishankar et al., 2003. Proceedings of the National Academy of Sciences of the United States of America, 100: 3203-3208; Kotnik T. et al., 2000. IEEE Trans Biomed Eng, 47: 1074-1081). In the present case, t is the Time to Onset (TTO) of damage creating a bi-asymptotic behavior. This adapted model is used to describe lowest exposure level (LEL) under first order, steady state assumptions, as
Real-time oxygen measurements were performed optically using on-chip lifetime-based luminescence quenching (LBLQ). […]

## Cc1cn([C@H]2C=C[C@@H](CO)O2)c(=O)[nH]c1=O [Stavudine]
At 24 hours
  TC50: 4300 µM
At 42 hours
  TC50: 1700 µM and 1700 ± 400 µM
dose-dependent range over concentrations tested
  Time to onset (TTO) of response: 10 to 29 h
Horizontal asymptote, onset of damage at infinite time, ± standard error of curve fit
  lowest exposure level (LEL): 4 ± 1 µM
